# Measured values from patent US9604983B2, “Herbicidal 3-(2-benzyloxyphenyl)-2,4-dihydroxy-1,8-naphthyridine derivatives” (SYNGENTA LIMITED, priority 2013, dated 2017).
# How the values were obtained:
# Experiment in all cases: Post-emergence efficacy, glasshouse pot test
# Type in all cases: in vivo
# Details in all cases: post-emergence application at 1000 g/ha; evaluated after 13 days; five point scale
# [1] = test system: Alopecurus myosuroides (ALOMY)
# [2] = test system: Amaranthus retoflexus (AMARE)
# [3] = test system: Echinochloa crus-galli (ECHCG)
# [4] = test system: Ipomoea hederacea (IPOHE)
# Setaria faberi (SETFA) = test system: Setaria faberi (SETFA)
# Solanum nigrum (SOLNI) = test system: Solanum nigrum (SOLNI)
SMILES,"percentage damage caused to the plant, ALOMY [1]","percentage damage caused to the plant, AMARE [2]","percentage damage caused to the plant, ECHCG [3]","percentage damage caused to the plant, IPOHE [4]","percentage damage caused to the plant, SETFA (Setaria faberi (SETFA))","percentage damage caused to the plant, SOLNI (Solanum nigrum (SOLNI))"
COc1ccnc2c1c(OC(C)=O)c(-c1c(F)ccc(Cl)c1OCc1ccccc1)c(=O)n2CC(F)F [Compound 7.002],4 (4=60-79%),5 (5=80-100%),5 (5=80-100%),5 (5=80-100%),5 (5=80-100%),5 (5=80-100%)
CC(C)C(=O)Oc1c(-c2c(F)ccc(Cl)c2OCc2ccccc2)c(=O)n(CC(F)F)c2ncccc12 [Compound 7.001],1 (1=0-19%),5 (5=80-100%),1 (1=0-19%),5 (5=80-100%),1 (1=0-19%),5 (5=80-100%)
O=c1c(-c2c(F)ccc(Cl)c2OCc2ccccc2)c(O)c2cccnc2n1CC(F)F [Compound 8.001],3 (3=40-59%),5 (5=80-100%),3 (3=40-59%),5 (5=80-100%),1 (1=0-19%),5 (5=80-100%)
C#CCn1c(=O)c(-c2c(Cl)ccc(Cl)c2OCc2ccc(Cl)cc2)c(OC(=O)C(C)C)c2cccnc21 [Compound 1.003],1 (1=0-19%),5 (5=80-100%),4 (4=60-79%),5 (5=80-100%),3 (3=40-59%),5 (5=80-100%)
